How the values were obtained:
[1] = Cardiac telemetry / bradycardia assay in the rat; assay type: in vivo; details: male Sprague-Dawley rats, oral, vehicle PEG400, heart rate over a 120 min period; FIG. 11
Experimental: Male Sprague-Dawley rats (250-300 g at time of surgery) were implanted by Charles River Laboratories (Wilmington, Mass.) with cardiac transmitting devices (Data Sciences PhysioTel C50-PXT) into the peritoneal space, with a pressure-sensing catheter inserted into the descending aorta. Rats are allowed at least one week to recover. Rats were housed in individual cages and maintained in a humidity-controlled (30-70%) and temperature-controlled (20-22° C.) facility on a 12 h:12 h light/dark cycle (lights on at 7:00 am) with free access to food (Harlan-Teklad, Orange, Calif., Rodent Diet 8604) and water. Rats were allowed one week of habituation to the animal facility before testing.
The implanted transmitting devices transmitted continuous measurements of blood pressure (systolic, diastolic, mean arterial, pulse), heart rate, body temperature, and motor activity in freely moving conscious animals. […] Telemetry recording occurred over a 21-h period, starting at noon and continuing until 9:00 am the following day. […]
By way of illustration and not limitation, the rats were administered vehicle (PEG 400) and the 2nd enantiomer of compound 12 (isolated after resolution of compound 12 by HPLC, with a retention time of 13.9 min per the conditions reported in Example 1.29) and heart rate was then measured over a 120 min period.

MOG-induced EAE = experiment: MOG-induced experimental autoimmune encephalomyelitis (EAE) in mice; assay type: in vivo, mouse; details: female C57BL/6 mice, oral once a day day 3 to day 21, 0.3, 1 and 3 mg/kg; FIG. 10
Experimental: Female C57BL/6 mice (8 to 10 weeks of age at start of study) (Jackson Laboratory, Bar Harbor, Me.) were housed four per cage and maintained in a humidity-controlled (40-60%) and temperature-controlled (68-72° F.) facility on a 12 h:12 h light/dark cycle (lights on at 6:30 am) with free access to food (Harlan Teklad, Orange, Calif., Rodent Diet 8604) and water. Mice were allowed one week of habituation to the animal facility before testing.
Mice were immunized subcutaneously, 50 μL per hind flank, with a total of 100 μg MOG35-55 peptide emulsified 1:1 with Complete Freund's adjuvant containing 4 mg/mL heat-killed Mycobacterium tuberculosis. […]
Severity of disease symptoms was scored as follows (in increasing order of severity): 0=normal; 1=limp tail OR hind limb weakness; 2=limp tail AND limb weakness/weakness of 2 or more limbs; 3=severe limb weakness or single limb paralysis; 4=paralysis of 2 or more limbs; 5=death.
Mice were dosed orally, with vehicle or the 2nd enantiomer of compound 12 (isolated after resolution of compound 12 by HPLC, with a retention time of 13.9 min per the conditions reported in Example 1.29), once a day from day 3 until day 21. […] Mice were monitored daily from day 7 onward for disease symptoms. After the last dose on day 21, disease progression was monitored daily for 2 more weeks.

mean ankle diameter = experiment: Collagen-induced arthritis in rats (ankle diameter); assay type: in vivo, rat; details: female Lewis rats, collagen injections day 0 and 6, p.o. q.d. day 0-16, 0.3, 1 and 3 mg/kg; FIG. 9
Experimental: Female Lewis rats were used in this study. Acclimated animals were anesthetized with isoflurane and given the first collagen injection (day 0). On day 6, they were anesthetized again for the second collagen injection. Collagen was prepared by making a 4 mg/mL solution in 0.01 N acetic acid. Equal volumes of collagen and incomplete Freund's adjuvant were emulsified by hand mixing until a bead of this material held its form when placed in water. Each animal received 300 μL of the mixture each time, spread over 3 subcutaneous sites on the back.
Treatment (p.o., q.d., 5 mL/kg dosing volume) began on day 0 and continued through day 16 with vehicle or compounds given at 24 h intervals. Rats were weighed on days 0, 3, 6 and 9 through 17 and caliper measurements of the ankles taken on days 9 through 17. The 2nd enantiomer of compound 12 (isolated after resolution of compound 12 by HPLC, with a retention time of 13.9 min per the conditions reported in Example 1.29) was dosed at 0.3, 1 and 3 mg/kg.

[2] = test system: peripheral blood lymphocyte (PBL) count; experiment: Mouse peripheral lymphocyte lowering (PLL) assay; assay type: in vivo; details: male BALB/c mice, 1.00 mg/kg oral dose, 5 hours post-dose, vs vehicle; FIG. 7
Experimental: Male BALB/c mice (Charles River Laboratories, Wilmington, Mass.) were housed four per cage and maintained in a humidity-controlled (40 to 60%) and temperature-controlled (68 to 72° F.) facility on a 12 h:12 h light/dark cycle (lights on at 6:30 am) with free access to food (Harlan Teklad, Orange, Calif., Rodent Diet 8604) and water. Mice were allowed one week of habituation to the animal facility before testing.
(§1) Mice were given an oral dose of Compound 5, Compound 7 or dosing vehicle (0.5% methylcellulose) in a total volume of 10 mL/kg. Peripheral blood samples were collected at 5 hours post-dose. The mice were anesthetized with isoflurane and blood was collected via cardiac puncture. A complete cell count (CBC), including lymphocyte count, was obtained using a CELL-DYN® 3700 (Abbott Laboratories, Abbott Park, Ill.) instrument. Results are presented in FIGS. 1 and 2, in which peripheral blood lymphocyte (PBL) count is shown for the 5 hour group.
as §1, with “given a 1.00 mg/kg” for “given an”, “of the 2nd enantiomer of compound 12 (isolated after resolution of compound 12 by HPLC, with a retention time of 13.9 min per the conditions reported in Example 1.29)” for “of Compound 5, Compound 7”, “(0.5% methylcellulose in sterile water)” for “(0.5% methylcellulose)”, “in FIG. 7,” for “in FIGS. 1 and 2,”

[3] = test system: peripheral blood lymphocyte (PBL) count; experiment: Rat peripheral lymphocyte lowering (PLL) assay; assay type: in vivo; details: male Sprague-Dawley rats, 1.00 mg/kg oral dose, 5 hours post-dose, vs vehicle; FIG. 8
Experimental: Male Sprague-Dawley rats (7 weeks of age at start of study) (Charles River Laboratories) were housed two per cage and maintained in a humidity-controlled (40-60%) and temperature-controlled (68-72° F.) facility on a 12 h:12 h light/dark cycle (lights on at 6:30 am) with free access to food (Harlan Teklad, Orange, Calif., Rodent Diet 8604) and water. Rats were allowed one week of habituation to the animal facility before testing.
Rats were given a 1.00 mg/kg oral dose of the 2nd enantiomer of compound 12 (isolated after resolution of compound 12 by HPLC, with a retention time of 13.9 min per the conditions reported in Example 1.29) or dosing vehicle (0.5% methylcellulose in sterile water) in a total volume of 1.00 mL/kg. Peripheral blood samples were collected at 5 hours post-dose. Blood was collected via indwelling catheter. A complete cell count (CBC), including lymphocyte count, was obtained using a CELL-DYN® 3700 (Abbott Laboratories, Abbott Park, Ill.) instrument. Results are presented in FIG. 8, in which peripheral blood lymphocyte (PBL) count is shown for the 5 hour group.

## O=C(O)C[C@H]1CCc2c1[nH]c1ccc(OCc3ccc(C4CCCC4)c(C(F)(F)F)c3)cc21 [2nd enantiomer of compound 12, (R)-2-(7-(4-cyclopentyl-3-(trifluoromethyl)benzyloxy)-1,2,3,4-tetrahydrocyclopenta[b]indol-3-yl)acetic acid]
[1]
  reduction of heart rate (bradycardia): no or substantially no reduction of heart rate
MOG-induced EAE
  reduction of severity of disease symptoms (clinical score) in EAE: exhibited activity in the mouse EAE assay
Mean ankle diameter
  reduction of mean ankle diameter: exhibited activity for reducing mean ankle diameter
[2]
  activity for inducing PBL lowering (lymphopenia): exhibited activity for inducing PBL lowering (lymphopenia)
[3]
  activity for inducing PBL lowering (lymphopenia): exhibited activity for inducing PBL lowering (lymphopenia)
